Source: PubChem BioAssay (NCI)
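Values below derive from 48-hour exposures of cells grown in 96-well plates, with endpoints linearly interpolated between the two concentrations bracketing the appropriate inhibition level. TGI denotes the concentration required for complete inhibition of growth.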

Key:
Assay in all cases: NCI anticancer screen, dose series, 48 h
SK-OV-3 ovarian = system: SK-OV-3 ovarian
K-562 leukemia = system: K-562 leukemia
MDA-MB-435 = system: MDA-MB-435
OVCAR-3 ovarian = system: OVCAR-3 ovarian
HCT-15 colon = system: HCT-15 colon
LOX IMVI melanoma = system: LOX IMVI melanoma
SR leukemia = system: SR leukemia
COLO 205 colon = system: COLO 205 colon
MDA-N = system: MDA-N
SNB-19 CNS = system: SNB-19 CNS
OVCAR-5 ovarian = system: OVCAR-5 ovarian
NCI/ADR-RES ovarian = system: NCI/ADR-RES ovarian
SK-MEL-28 melanoma = system: SK-MEL-28 melanoma
MCF7 breast = system: MCF7 breast
NCI-H460 lung = system: NCI-H460 lung
SF-268 CNS = system: SF-268 CNS
MALME-3M melanoma = system: MALME-3M melanoma
NCI-H522 lung = system: NCI-H522 lung

| SMILES | TGI (SK-OV-3 ovarian) [µM] | TGI (K-562 leukemia) [µM] | TGI (MDA-MB-435) [µM] | TGI (OVCAR-3 ovarian) [µM] | TGI (HCT-15 colon) [µM] | TGI (LOX IMVI melanoma) [µM] | TGI (SR leukemia) [µM] | TGI (COLO 205 colon) [µM] | TGI (MDA-N) [µM] | TGI (SNB-19 CNS) [µM] | TGI (OVCAR-5 ovarian) [µM] | TGI (NCI/ADR-RES ovarian) [µM] | TGI (SK-MEL-28 melanoma) [µM] | TGI (MCF7 breast) [µM] | TGI (NCI-H460 lung) [µM] | TGI (SF-268 CNS) [µM] | TGI (MALME-3M melanoma) [µM] | TGI (NCI-H522 lung) [µM] |
| --- | --- | --- | --- | --- | --- | --- | --- | --- | --- | --- | --- | --- | --- | --- | --- | --- | --- | --- |
| O=C(c1ccccc1)c1ccc(N2C(=O)/C(=C/c3cccc([N+](=O)[O-])c3)N=C2c2ccccc2)c(N2C(=O)/C(=C/c3cccc([N+](=O)[O-])c3)N=C2c2ccccc2)c1 | > 100 | > 100 | 29.8 | > 100 | > 100 | > 100 | > 100 | 11.1 | 86.6 | > 100 | > 100 | > 100 | > 100 | > 100 | > 100 | > 100 | – | – |
| NC(=S)Nc1c(S(N)(=O)=O)cc(S(N)(=O)=O)c(Cl)c1Cl | > 100 | > 100 | > 100 | > 100 | > 100 | > 100 | – | > 100 | > 100 | > 100 | > 100 | > 100 | > 100 | > 100 | – | > 100 | > 100 | > 100 |
| CCOC(=O)C(=NN(C)c1ncccc1N)C(=O)OCC | > 100 | 59.1 | 44.5 | > 100 | > 100 | 38.1 | > 100 | 29 | > 100 | > 100 | – | > 100 | > 100 | 39.7 | > 100 | > 100 | 59.7 | – |
| Cn1c(=O)oc2cc(C(=O)CN3CCN(Cc4ccc5c(c4)OCO5)CC3)c(Cl)cc21 | > 100 | > 100 | – | – | > 100 | > 100 | > 100 | > 100 | > 100 | > 100 | > 100 | > 100 | – | > 100 | > 100 | > 100 | > 100 | – |
| Brc1ccc(N=C/C=C(\Nc2ccc(Br)cc2)C23CC4CC(CC(C4)C2)C3)cc1 | > 100 | > 67 | 24.7 | 28.9 | > 46.6 | 21.8 | – | 47.3 | 34.9 | > 100 | > 67.8 | > 84.9 | > 59.5 | 28.4 | > 68.8 | 37.9 | 42.8 | 30.5 |
| CCN(CC)CCC1CCCCN1CC(=O)N1c2ccccc2NC(=O)CC1C (stereo not given) | > 100 | > 100 | > 100 | > 100 | > 100 | > 100 | > 100 | > 100 | > 100 | > 100 | > 100 | – | > 100 | > 100 | > 100 | > 100 | > 100 | > 100 |
| COc1cc(Br)cc2c1O[C@H]1C(=O)CC3CC21CCN3C (stereo not given in full) | > 100 | 46.3 | > 100 | > 100 | > 100 | > 100 | > 100 | > 100 | > 100 | > 100 | > 100 | > 100 | > 100 | > 100 | – | > 100 | > 100 | – |
| N=C(N)SCCSC(=N)N | > 100 | > 100 | > 100 | > 100 | > 100 | > 100 | – | > 100 | > 100 | > 100 | > 100 | > 100 | > 100 | > 100 | > 100 | > 100 | > 100 | > 100 |
| COc1ccc(-c2nc(SCC(=O)N/N=C/c3ccc([N+](=O)[O-])cc3)[nH]c2-c2ccc(OC)cc2)cc1 | > 81.9 | > 100 | 12.2 | > 64.5 | > 85.1 | 44.1 | – | 5.28 | 12.9 | > 100 | 60.7 | 79.7 | > 72 | 20.6 | 45.8 | > 100 | 50.8 | 29.7 |
| Clc1ccc(-c2cn3c(nc4ccccc43)c(/C=C/c3cccs3)n2)cc1 | > 100 | > 100 | > 100 | > 100 | > 100 | > 100 | > 100 | > 100 | > 100 | > 100 | > 100 | > 100 | > 100 | > 100 | > 100 | > 100 | > 100 | – |
| CC(=O)OC12c3ccccc3C(c3ccccc31)C1C(=O)N(c3ccccc3O)C(=O)C12 (stereo not given) | > 100 | > 100 | – | > 100 | > 100 | > 100 | > 100 | > 100 | > 100 | > 100 | > 100 | > 100 | > 100 | > 100 | > 100 | > 100 | > 100 | – |
| CC(=O)OCC(OC(C)=O)C(OC(C)=O)C(/C=N\Nc1nc2ccccc2c(=O)[nH]1)OC(C)=O (stereo not given) | > 100 | > 100 | > 100 | > 100 | > 100 | > 100 | > 100 | > 100 | > 100 | > 100 | > 100 | > 100 | > 100 | > 100 | > 100 | > 100 | – | – |
| COc1ccc2cc(NC(=O)Nn3cnnc3)ccc2c1 | > 100 | > 100 | > 100 | > 100 | > 100 | > 100 | > 100 | > 100 | > 100 | > 100 | > 100 | – | > 100 | > 100 | > 100 | > 100 | > 100 | > 100 |
| CC(C)(Cl)C(Br)CCC(=CCBr)CBr (mixture of isomers) | 29 | 4.18 | 3.56 | 6.27 | 3.75 | – | – | 4.91 | 6.13 | 13.1 | 26.4 | > 24.5 | 10.8 | 8.42 | 13.6 | 4.99 | 4.74 | 3.19 |
| CC(=O)c1cc2sc3ccccc3c2[nH]1 | > 100 | > 100 | > 100 | > 100 | > 100 | – | – | > 100 | > 100 | > 100 | > 100 | > 100 | > 100 | > 100 | > 100 | > 100 | > 100 | > 100 |
| CCOC(=O)C1C(c2ccccc2)C2(C#N)C(=N)OC1(C)C2(C#N)C#N (stereo not given) | > 100 | 48.8 | 51.6 | – | > 100 | 29.4 | – | 31.5 | 27.9 | > 100 | 72.6 | 85.9 | – | > 100 | – | 94 | 54.3 | – |
| CCOC(=O)c1sc2c(c1OC(=O)c1ccc(Cl)cc1Cl)c(=O)n(-c1ccccc1)c(=S)n2-c1ccccc1 | > 81.2 | > 100 | > 100 | > 100 | 38.6 | > 81.1 | – | 35.4 | 68.7 | > 100 | > 100 | > 47.8 | > 100 | > 100 | > 55 | > 100 | 66.3 | > 100 |
| CCOC(=O)c1ccc(N(C)Cc2cnc3nc(N)nc(N)c3n2)cc1 | 51.4 | > 100 | > 100 | 34.9 | > 100 | > 100 | > 100 | > 100 | > 100 | > 100 | > 100 | 38.8 | 83.8 | 49.8 | > 100 | > 100 | 51.1 | – |
| CC(=O)OC12c3ccccc3C(c3ccccc31)C1C(=O)N(Nc3ccccc3)C(=O)C12 (stereo not given) | > 100 | > 100 | – | > 100 | > 100 | > 100 | > 100 | > 100 | > 100 | > 100 | > 100 | > 100 | > 100 | > 100 | > 100 | > 100 | > 100 | – |
| CNC(=S)N/N=C(\C)c1cc(OC)c(OC)cc1O | > 100 | > 100 | > 100 | > 100 | > 100 | – | > 100 | > 100 | > 100 | > 100 | > 100 | > 100 | > 100 | > 100 | > 100 | > 100 | > 100 | – |
| CC1(C)OC[C@@H]([C@H](C=O)OCc2ccccc2)O1 | > 100 | > 100 | > 100 | > 100 | > 100 | > 100 | > 100 | > 100 | > 100 | > 100 | > 100 | > 100 | > 100 | > 100 | – | > 100 | > 100 | – |
| CC(=O)OCc1cc(OC(C)=O)c2cc3c(OC(C)=O)cccc3c(OC(C)=O)c2c1 | 41.1 | > 100 | 43.9 | 33.6 | 31.1 | – | > 100 | > 100 | 40.9 | 50.6 | 46.4 | 43.4 | 51.7 | 38.9 | 23.8 | 58.1 | 4.08 | – |
